Test results taken from US8067445B2, “N,N-disubstituted aminoalkylbiphenyl antagonists of prostaglandin D2 receptors” (Panmira Pharmaceuticals, LLC, priority 2008, dated 2011).

target: T1, human DP2 receptor (Homo sapiens, UniProt Q9Y5Y4); assay: DP2/CRTH2 radioligand binding assay ([3H]PGD2); details: [3H]PGD2 binding, membranes of HEK293 cells expressing human DP2; read-out: hDP2
T1 construct: expressed in transfected cells
T1 sequence (Q9Y5Y4 1-395): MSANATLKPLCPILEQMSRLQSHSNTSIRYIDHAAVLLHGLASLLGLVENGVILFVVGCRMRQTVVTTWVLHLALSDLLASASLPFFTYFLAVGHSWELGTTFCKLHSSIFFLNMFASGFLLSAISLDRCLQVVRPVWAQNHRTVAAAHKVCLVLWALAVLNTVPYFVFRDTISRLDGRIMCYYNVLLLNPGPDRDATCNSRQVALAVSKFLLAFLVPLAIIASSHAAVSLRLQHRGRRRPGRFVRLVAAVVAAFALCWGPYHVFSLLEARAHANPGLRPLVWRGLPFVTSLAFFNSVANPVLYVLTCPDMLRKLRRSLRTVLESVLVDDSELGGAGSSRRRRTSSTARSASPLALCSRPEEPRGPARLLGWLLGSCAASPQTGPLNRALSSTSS
Procedure: The ability of a compound to bind to the human DP2 receptor is assessed via a radioligand binding assay using [^3H]PGD2. HEK293 cells stably expressing recombinant human DP2 are resuspended in 10 mM Hepes, 7.4 containing 1 mM DTT, lysed and centrifuged at 75,000×g to pellet the membranes. The membranes are resuspended in 10 mM Hepes, 7.4 containing 1 mM DTT and 10% glycerol to approximately 5 mg protein/ml. Membranes (2-10 μg protein/well) are incubated in 96-well plates with 1 nM [^3H]PGD2 and test compound in Assay Buffer (50 mM Hepes, 10 mM MnCl2, 1 mM EDTA, plus or minus 0.2% human serum albumin, pH 7.4) for 60 minutes at room temperature. The reactions are terminated by rapid filtration through Whatman GF/C glass fibre filter plates. The filter plates were pre-soaked in 0.33% polyethylenimine for 30 minutes at room temperature then washed in Wash Buffer (50 mM Hepes, 0.5 M NaCl pH 7.4) prior to harvesting. After harvesting, the filter plates are washed 3 times with 1 ml cold Wash Buffer then dried. Scintillant is then added to the plates and the radioactivity retained on the filters is determined on a Packard TopCount (Perkin Elmer). Specific binding is determined as total radioactive binding minus non-specific binding in the presence of 10 μM PGD2. IC50s were determined using GraphPad prism analysis of drug titration curves.

Row | IC50 | Structure (SMILES)
1 | < 300 nM | CCN(Cc1cc(C(F)(F)F)ccc1-c1cc(Cl)cc(C(C)C(=O)O)c1)C(=O)NCc1ccccc1 (stereo not shown) [Compound 1-223, 2-[2′-(3-Benzyl-1-ethyl-ureidomethyl)-5-chloro-4′-trifluoromethyl-biphenyl-3-yl]-propionic acid]
2 | 1000 to 30000 nM | CCN(Cc1cc(C(F)(F)F)ccc1-c1cc([C@H](C)C(=O)O)ccc1OC)C(=O)C1CC1 [Compound 1-225, (S)-2-{2′-[(Cyclopropanecarbonyl-ethyl-amino)-methyl]-6-methoxy-4′-trifluoromethyl-biphenyl-3-yl}-propionic acid]
3 | < 300 nM | CCOc1ccc(-c2ccc(-c3cc(CC(=O)O)ccc3OC)c(CN(CC)C(=O)COc3ccc(Cl)cc3)c2)cn1 [Compound 1-229, [2′-({[2-(4-Chloro-phenoxy)-acetyl]-ethyl-amino}-methyl)-4′-(6-ethoxy-pyridin-3-yl)-6-methoxy-biphenyl-3-yl]-acetic acid]
4 | < 300 nM | CCN(Cc1cc(-c2ccc3ncccc3c2)ccc1-c1cc(CC(=O)O)ccc1OC)C(=O)C1CC1 [Compound 1-230, {2′-[(Cyclopropanecarbonyl-ethyl-amino)-methyl]-6-methoxy-4′-quinolin-6-yl-biphenyl-3-yl}-acetic acid]
5 | < 300 nM | CCN(Cc1cc(-c2ccc3ncccc3c2)ccc1-c1cc(CC(=O)O)ccc1OC)C(=O)NCc1ccccc1 [Compound 1-231, [2′-(3-Benzyl-1-ethyl-ureidomethyl)-6-methoxy-4′-quinolin-6-yl-biphenyl-3-yl]-acetic acid]
6 | < 300 nM | CCN(Cc1cc(-c2ccc3ncccc3c2)ccc1-c1cc(CC(=O)O)ccc1OC)C(=O)COc1ccc(Cl)cc1 [Compound 1-232, [2′-({[2-(4-Chloro-phenoxy)-acetyl]-ethyl-amino}-methyl)-6-methoxy-4′-quinolin-6-yl-biphenyl-3-yl]-acetic acid]
7 | 300 to 1000 nM | CCN(Cc1cc(C(F)(F)F)ccc1-c1cc(C(F)(F)F)cc(C(C)(C)C(=O)O)c1)C(=O)C1CC1 [Compound 1-236, 2-{2′-[(Cyclopropanecarbonyl-ethyl-amino)-methyl]-5,4′-bis-trifluoromethyl-biphenyl-3-yl}-2-methyl-propionic acid]
8 | < 300 nM | CCN(Cc1cc(C(F)(F)F)ccc1-c1cc([C@H](C)C(=O)O)cc(C(F)(F)F)c1)C(=O)C1CC1 [Compound 1-238, (S)-2-{2′-[(Cyclopropanecarbonyl-ethyl-amino)-methyl]-5,4′-bis-trifluoromethyl-biphenyl-3-yl}-propionic acid]
9 | < 300 nM | CCN(Cc1cc(C(F)(F)F)ccc1-c1cc([C@@H](C)C(=O)O)cc(C(F)(F)F)c1)C(=O)NCc1ccccc1 [Compound 1-239, (R)-2-[2′-(3-Benzyl-1-ethyl-ureidomethyl)-5,4′-bis-trifluoromethyl-biphenyl-3-yl]-propionic acid]
10 | < 300 nM | CCN(Cc1cc(C(F)(F)F)ccc1-c1cc([C@H](C)C(=O)O)cc(C(F)(F)F)c1)C(=O)NCc1ccccc1 [Compound 1-240, (S)-2-[2′-(3-Benzyl-1-ethyl-ureidomethyl)-5,4′-bis-trifluoromethyl-biphenyl-3-yl]-propionic acid]
11 | < 300 nM | CCN(Cc1cc(SC)ccc1-c1cc(Cl)cc(CC(=O)O)c1)C(=O)C1CC1 [Compound 1-242, {5-Chloro-2′-[(cyclopropanecarbonyl-ethyl-amino)-methyl]-4′-methylsulfanyl-biphenyl-3-yl}-acetic acid]
12 | < 300 nM | CCN(Cc1cc(C(F)(F)F)ccc1-c1cc(C(C)C(=O)O)ccc1OC)C(=O)NC1CC1 (stereo not shown) [Compound 1-243, 2-[2′-(3-Cyclopropyl-1-ethyl-ureidomethyl)-6-methoxy-4′-trifluoromethyl-biphenyl-3-yl]-propionic acid]
13 | 1000 to 30000 nM | CCN(Cc1cc(C(F)(F)F)ccc1-c1cc(CC(=O)O)ccc1OC)C(=O)C(C)(C)C [Compound 1-245, (2′-{[(2,2-Dimethyl-propionyl)-ethyl-amino]-methyl}-6-methoxy-4′-trifluoromethyl-biphenyl-3-yl)-acetic acid]
14 | < 300 nM | CCN(Cc1cc(-c2ccc(F)cn2)ccc1-c1cc(CC(=O)O)ccc1OC)C(=O)C1CC1 [Compound 1-249, [2′-[(Cyclopropanecarbonyl-ethyl-amino)-methyl]-4′-(5-fluoro-pyridin-2-yl)-6-methoxy-biphenyl-3-yl]-acetic acid]
15 | < 300 nM | CCN(Cc1cc(-c2ncc(OC)cn2)ccc1-c1cc(CC(=O)O)ccc1OC)C(=O)C1CC1 [Compound 1-250, [2′-[(Cyclopropanecarbonyl-ethyl-amino)-methyl]-6-methoxy-4′-(5-methoxy-pyrimidin-2-yl)-biphenyl-3-yl]-acetic acid]
16 | < 300 nM | CCOc1ccc(-c2ccc(-c3cc(CC(=O)O)ccc3OC)c(CN(CC)C(=O)c3ccccc3)c2)cn1 [Compound 1-254, [2′-[(Benzoyl-ethyl-amino)-methyl]-4′-(6-ethoxy-pyridin-3-yl)-6-methoxy-biphenyl-3-yl]-acetic acid]
17 | < 300 nM | CCOc1ccc(-c2ccc(-c3cc(CC(=O)O)ccc3OC)c(CN(CC)C(=O)Cc3ccccc3)c2)cn1 [Compound 1-255, {4′-(6-Ethoxy-pyridin-3-yl)-2′-[(ethyl-phenylacetyl-amino)-methyl]-6-methoxy-biphenyl-3-yl}-acetic acid]
18 | < 300 nM | CCOc1ccc(-c2ccc(-c3cc(CC(=O)O)ccc3OC)c(CN(CC)C(=O)CCc3ccccc3)c2)cn1 [Compound 1-256, (4′-(6-Ethoxy-pyridin-3-yl)-2′-{[ethyl-(3-phenyl-propionyl)-amino]-methyl}-6-methoxy-biphenyl-3-yl)-acetic acid]
19 | > 30000 nM | CCN(Cc1cc(C(F)(F)F)ccc1-c1cc([C@@H](C)C(=O)N[C@H](C)Cc2ccccc2)cc(C(F)(F)F)c1)C(=O)NCc1ccccc1 [Compound 2-10, (R)-2-[2′-(3-Benzyl-1-ethyl-ureidomethyl)-5,4′-bis-trifluoromethyl-biphenyl-3-yl]-N—((R)-1-methyl-2-phenyl-ethyl)-propionamide]
20 | < 300 nM | CCN(Cc1cc(C(F)(F)F)ccc1-c1cc([C@H](C)C(=O)N[C@H](C)Cc2ccccc2)cc(C(F)(F)F)c1)C(=O)NCc1ccccc1 [Compound 2-11, (S)-2-[2′-(3-Benzyl-1-ethyl-ureidomethyl)-5,4′-bis-trifluoromethyl-biphenyl-3-yl]-N—((R)-1-methyl-2-phenyl-ethyl)-propionamide]
21 | > 30000 nM | CCN(Cc1cc(C(F)(F)F)ccc1-c1cc([C@@H](C)C(=O)N2C(=O)O[C@@H](c3ccccc3)[C@H]2C)ccc1OC)C(=O)C1CC1 [Compound 2-12, Cyclopropanecarboxylic acid ethyl-{2′-methoxy-5′-[(R)-1-methyl-2-((4R,5S)-4-methyl-2-oxo-5-phenyl-oxazolidin-3-yl)-2-oxo-ethyl]-4-trifluoromethyl-biphenyl-2-ylmethyl}-amide]
22 | 1000 to 30000 nM | CCN(Cc1cc(C(F)(F)F)ccc1-c1cc([C@H](C)C(=O)N2C(=O)O[C@@H](c3ccccc3)[C@H]2C)ccc1OC)C(=O)C1CC1 [Compound 2-13, Cyclopropanecarboxylic acid ethyl-{2′-methoxy-5′-[(S)-1-methyl-2-((4R,5S)-4-methyl-2-oxo-5-phenyl-oxazolidin-3-yl)-2-oxo-ethyl]-4-trifluoromethyl-biphenyl-2-ylmethyl}-amide]
23 | 1000 to 30000 nM | CCOC(=O)Cc1ccc(OC)c(-c2ccc(C(=O)O)cc2CN(CC)C(=O)OCc2ccccc2)c1 [Compound 2-14, 2-[(Benzyloxycarbonyl-ethyl-amino)-methyl]-5′-ethoxycarbonylmethyl-2′-methoxy-biphenyl-4-carboxylic acid]
24 | 1000 to 30000 nM | CCN(Cc1cc(C(F)(F)F)ccc1-c1cc([C@@H](C)C(=O)N2C(=O)O[C@@H](c3ccccc3)[C@H]2C)cc(C(F)(F)F)c1)C(=O)C1CC1 [Compound 2-15, Cyclopropanecarboxylic acid ethyl-{3′-[(R)-1-methyl-2-((4R,5S)-4-methyl-2-oxo-5-phenyl-oxazolidin-3-yl)-2-oxo-ethyl]-4,5′-bis-trifluoromethyl-biphenyl-2-ylmethyl}-amide]
25 | 1000 to 30000 nM | CCN(Cc1cc(C(F)(F)F)ccc1-c1cc([C@H](C)C(=O)N2C(=O)O[C@@H](c3ccccc3)[C@H]2C)cc(C(F)(F)F)c1)C(=O)C1CC1 [Compound 2-16, Cyclopropanecarboxylic acid ethyl-{3′-[(S)-1-methyl-2((4R,5S)-4-methyl-2-oxo-5-phenyl-oxazolidin-3-yl)-2-oxo-ethyl]-4,5′-bis-trifluoromethyl-biphenyl-2-ylmethyl}-amide]
